{"source": "patent US20130315843A1", "about": "“COMPOSITION FOR REDUCTION OF TRPA1 AND TRPV1 SENSATIONS” (priority 2012, published 2013)", "key": {"human TRPA1": {"molecular_target": "human TRPA1 (Homo sapiens, UniProt O75762)", "sequence (O75762 whole entry)": "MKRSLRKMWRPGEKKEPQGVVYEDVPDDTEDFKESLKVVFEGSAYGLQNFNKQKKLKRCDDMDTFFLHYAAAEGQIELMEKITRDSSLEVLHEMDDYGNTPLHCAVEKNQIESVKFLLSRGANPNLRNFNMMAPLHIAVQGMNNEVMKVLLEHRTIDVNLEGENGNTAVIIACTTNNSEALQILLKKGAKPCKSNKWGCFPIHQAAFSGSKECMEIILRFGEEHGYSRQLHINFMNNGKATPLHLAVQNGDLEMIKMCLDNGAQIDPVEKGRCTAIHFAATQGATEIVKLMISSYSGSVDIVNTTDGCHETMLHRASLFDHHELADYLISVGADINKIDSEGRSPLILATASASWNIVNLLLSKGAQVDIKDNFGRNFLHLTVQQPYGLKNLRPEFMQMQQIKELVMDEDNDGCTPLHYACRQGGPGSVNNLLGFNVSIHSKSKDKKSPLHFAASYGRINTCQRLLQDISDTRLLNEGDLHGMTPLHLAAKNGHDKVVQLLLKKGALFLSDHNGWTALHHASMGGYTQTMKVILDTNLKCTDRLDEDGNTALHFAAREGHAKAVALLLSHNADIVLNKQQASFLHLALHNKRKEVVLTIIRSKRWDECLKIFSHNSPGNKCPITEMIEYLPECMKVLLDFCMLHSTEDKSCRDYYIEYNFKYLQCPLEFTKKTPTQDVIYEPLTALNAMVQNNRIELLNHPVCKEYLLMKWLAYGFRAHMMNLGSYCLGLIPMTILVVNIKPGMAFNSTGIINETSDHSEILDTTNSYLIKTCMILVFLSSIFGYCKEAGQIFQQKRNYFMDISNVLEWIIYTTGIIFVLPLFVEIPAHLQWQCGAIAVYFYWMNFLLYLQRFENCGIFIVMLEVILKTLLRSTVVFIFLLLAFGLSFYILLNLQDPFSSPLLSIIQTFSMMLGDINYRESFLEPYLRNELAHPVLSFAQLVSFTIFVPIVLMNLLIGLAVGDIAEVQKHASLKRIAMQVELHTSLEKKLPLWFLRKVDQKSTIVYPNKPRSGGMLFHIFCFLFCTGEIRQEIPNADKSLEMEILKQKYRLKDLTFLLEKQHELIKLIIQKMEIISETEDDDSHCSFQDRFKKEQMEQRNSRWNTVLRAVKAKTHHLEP", "test": "FLIPR intracellular Ca2+ assay, direct (agonist) effect on TRPA1", "type": "cell-based", "design": "expressed in transfected cells", "details": "for percent hydrogen peroxide activation of TRPA1 compared to control agonist: control 50 μM AITC", "experimental": "After centrifugation, a pellet of cells was formed in the bottom of the tube separating them from the supernatant solution.\n(§1) The pelleted cells were re-suspended in 10 ml assay buffer and 90 μl aliquots (˜50,000 cells) per well delivered to a 96-well assay plate containing 10 μl of test compounds (1 mM in assay buffer, final concentration 100 μM) or buffer control and incubated at room temperature for 30 minutes."}, "human TRPV1 [1]": {"molecular_target": "T1, human TRPV1 (Homo sapiens, UniProt Q8NER1)", "T1 sequence (Q8NER1 whole entry)": "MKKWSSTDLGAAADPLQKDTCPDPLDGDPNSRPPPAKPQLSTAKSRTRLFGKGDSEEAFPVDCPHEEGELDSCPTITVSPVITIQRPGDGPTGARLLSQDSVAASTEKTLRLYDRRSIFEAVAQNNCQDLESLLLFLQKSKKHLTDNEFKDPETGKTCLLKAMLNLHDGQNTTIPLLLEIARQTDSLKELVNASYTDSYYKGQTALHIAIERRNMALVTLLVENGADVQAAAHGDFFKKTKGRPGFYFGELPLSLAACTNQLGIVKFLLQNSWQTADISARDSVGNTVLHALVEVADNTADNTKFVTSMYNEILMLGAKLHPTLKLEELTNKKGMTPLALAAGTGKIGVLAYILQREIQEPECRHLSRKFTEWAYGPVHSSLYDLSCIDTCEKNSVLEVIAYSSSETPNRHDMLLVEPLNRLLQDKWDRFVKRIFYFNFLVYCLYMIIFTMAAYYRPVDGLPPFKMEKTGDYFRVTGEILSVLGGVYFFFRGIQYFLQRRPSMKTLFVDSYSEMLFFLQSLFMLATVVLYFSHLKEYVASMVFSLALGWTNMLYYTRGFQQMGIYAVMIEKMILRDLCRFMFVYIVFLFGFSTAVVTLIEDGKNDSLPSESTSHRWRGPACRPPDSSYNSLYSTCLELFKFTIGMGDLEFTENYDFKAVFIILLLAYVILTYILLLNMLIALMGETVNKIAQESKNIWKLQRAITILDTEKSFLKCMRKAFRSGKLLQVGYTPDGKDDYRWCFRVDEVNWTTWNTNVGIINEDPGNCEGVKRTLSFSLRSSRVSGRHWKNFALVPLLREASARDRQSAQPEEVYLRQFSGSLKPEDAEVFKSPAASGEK", "test": "FLIPR Ca2+ assay, reduction of hydrogen peroxide activation of TRPV1", "type": "cell-based", "design": "expressed in transfected cells", "details": "for Ca++ counts: with compound; for inhibition at 400 µM: antagonist 400 μM against 500 μM hydrogen peroxide"}, "human TRPV1 [2]": {"molecular_target": "T1, human TRPV1", "test": "FLIPR Ca2+ assay, reduction of capsaicin activation of TRPV1", "type": "cell-based", "design": "expressed in transfected cells", "details": "with compound", "experimental": "(§2) Cells were detached with addition of 10 ml of PBS (phosphate buffered saline) by hand shaking gently. Cells were transferred to a 50 ml tube and centrifuged at 850 rpm for 3 minutes to remove PBS.\nThe pelleted cells were re-suspended in 10 ml assay buffer and 90 μl aliquots (˜50,000 cells) per well delivered to a 96-well assay plate containing 10 μl of test compounds ([…]) or buffer control and incubated at room temperature for 30 minutes."}, "[3]": {"details": "concentration where the cooling effect can be clearly recognized; cited from earlier work"}, "human TRPV1 [4]": {"molecular_target": "T1, human TRPV1", "details": "for percent hydrogen peroxide activation of TRPV1 compared to control agonist: control 350 nM capsaicin", "experimental": "as §2, §1"}}, "note": "Values joined by “and” are separate entries in the source; they are usually repeats but may differ in a detail not shown here. Identical values can stand only once. Like-named read-outs stand apart in the source and are kept apart here.", "data": [{"compound": "CC(=O)OC1CC2CCC1(C)C2(C)C", "note": "(single isomer, unassigned; (-)) [(−)-Bornyl Acetate]", "values": [{"measurement": "effect on TRPA1 receptor, in words (agonist / enhancer)", "setting": "human TRPA1", "result": "TRPA1 agonists"}, {"measurement": "reduction of hydrogen peroxide activation of TRPV1, in words", "setting": "human TRPV1 [1]", "result": "reduce hydrogen peroxide activation of TRPV1"}, {"measurement": "inhibition at 100 µM", "setting": "human TRPV1 [1]; antagonist 100 μM against 500 μM hydrogen peroxide", "result": 53, "unit": "%"}, {"measurement": "Ca++ counts", "setting": "human TRPV1 [1]; Dose 1000, 500 uM H2O2", "result": 877}, {"measurement": "Ca++ counts", "setting": "human TRPV1 [2]; Dose 1000, 350 nM Capsaicin", "result": 13976}]}, {"compound": "CC(C)[C@@H]1CC[C@@H](C)C[C@@H]1O", "note": "[1-neomenthol]", "values": [{"measurement": "cooling threshold", "setting": "[3]", "result": "about 3,000 ppb"}]}, {"compound": "COc1cc(CNC(=O)CCCC/C=C/C(C)C)ccc1O", "note": "[Capsaicin]", "values": [{"measurement": "Ca2+ Count, TRPV1", "setting": "human TRPV1 [4]; control agonist Capsaicin 350 nM", "result": 16204, "unit": "Count"}]}, {"compound": "OO", "note": "[H2O2, hydrogen peroxide]", "values": [{"measurement": "percent hydrogen peroxide activation of TRPV1 compared to control agonist", "setting": "human TRPV1 [4]; H2O2 1 μM", "result": 1.51, "unit": "%"}, {"measurement": "percent hydrogen peroxide activation of TRPV1 compared to control agonist", "setting": "human TRPV1 [4]; H2O2 10 μM", "result": 3.10, "unit": "%"}, {"measurement": "percent hydrogen peroxide activation of TRPV1 compared to control agonist", "setting": "human TRPV1 [4]; H2O2 100 μM", "result": 17.45, "unit": "%"}, {"measurement": "percent hydrogen peroxide activation of TRPV1 compared to control agonist", "setting": "human TRPV1 [4]; H2O2 200 μM", "result": 21.18, "unit": "%"}, {"measurement": "percent hydrogen peroxide activation of TRPV1 compared to control agonist", "setting": "human TRPV1 [4]; H2O2 500 μM", "result": 30.21, "unit": "%"}, {"measurement": "percent hydrogen peroxide activation of TRPV1 compared to control agonist", "setting": "human TRPV1 [4]; H2O2 1 mM", "result": 41.13, "unit": "%"}, {"measurement": "percent hydrogen peroxide activation of TRPV1 compared to control agonist", "setting": "human TRPV1 [4]; H2O2 10 mM", "result": 62.81, "unit": "%"}, {"measurement": "percent hydrogen peroxide activation of TRPV1 compared to control agonist", "setting": "human TRPV1 [4]; H2O2 100 mM", "result": 209.29, "unit": "%"}, {"measurement": "percent hydrogen peroxide activation of TRPA1 compared to control agonist", "setting": "human TRPA1; H2O2 1 μM", "result": 1.4, "unit": "%"}, {"measurement": "percent hydrogen peroxide activation of TRPA1 compared to control agonist", "setting": "human TRPA1; H2O2 10 μM", "result": 9.6, "unit": "%"}, {"measurement": "percent hydrogen peroxide activation of TRPA1 compared to control agonist", "setting": "human TRPA1; H2O2 100 μM", "result": 91.4, "unit": "%"}, {"measurement": "Average Ca++ Counts", "setting": "human TRPA1; H2O2 200 μM alone, control of each Set 1-4", "result": "5881.5 Counts and 8721.8 Counts and 10592.2 Counts and 7043.6 Counts"}, {"measurement": "percent hydrogen peroxide activation of TRPA1 compared to control agonist", "setting": "human TRPA1; H2O2 200 μM", "result": 111.7, "unit": "%"}, {"measurement": "percent hydrogen peroxide activation of TRPA1 compared to control agonist", "setting": "human TRPA1; H2O2 500 μM", "result": 129.1, "unit": "%"}, {"measurement": "percent hydrogen peroxide activation of TRPA1 compared to control agonist", "setting": "human TRPA1; H2O2 1 mM", "result": 123.4, "unit": "%"}, {"measurement": "percent hydrogen peroxide activation of TRPA1 compared to control agonist", "setting": "human TRPA1; H2O2 10 mM", "result": 101.3, "unit": "%"}, {"measurement": "percent hydrogen peroxide activation of TRPA1 compared to control agonist", "setting": "human TRPA1; H2O2 100 mM", "result": 296.7, "unit": "%"}]}, {"compound": "CC(C)[C@@H]1CC[C@@H](C)C[C@H]1O", "note": "[L-menthol]", "values": [{"measurement": "cooling threshold", "setting": "[3]", "result": "about 800 ppb"}]}, {"compound": "CCC(=O)OCCOc1ccccc1", "note": "[Phenoxyethyl Propionate]", "values": [{"measurement": "effect on TRPA1 receptor, in words (agonist / enhancer)", "setting": "human TRPA1", "result": "TRPA1 agonists"}, {"measurement": "reduction of hydrogen peroxide activation of TRPV1, in words", "setting": "human TRPV1 [1]", "result": "reduce hydrogen peroxide activation of TRPV1"}, {"measurement": "inhibition at 400 µM", "setting": "human TRPV1 [1]", "result": 60, "unit": "%"}, {"measurement": "Ca++ counts", "setting": "human TRPV1 [1]; Dose 4000, 500 uM H2O2", "result": 737}, {"measurement": "Ca++ counts", "setting": "human TRPV1 [2]; Dose 4000, 350 nM Capsaicin", "result": 10922}]}, {"compound": "CC(C)C(=O)OCc1ccc2c(c1)OCO2", "note": "[Piperonyl Isobutyrate]", "values": [{"measurement": "effect on TRPA1 receptor, in words (agonist / enhancer)", "setting": "human TRPA1", "result": "enhancer of TRPA1"}, {"measurement": "reduction of hydrogen peroxide activation of TRPV1, in words", "setting": "human TRPV1 [1]", "result": "reduces hydrogen peroxide activation of TRPV1"}, {"measurement": "inhibition at 400 µM", "setting": "human TRPV1 [1]", "result": 63, "unit": "%"}, {"measurement": "Ca++ counts", "setting": "human TRPV1 [1]; Dose 4000, 500 uM H2O2", "result": 682}, {"measurement": "Ca++ counts", "setting": "human TRPV1 [2]; Dose 4000, 350 nM Capsaicin", "result": 10804}]}, {"compound": "CC(C)[C@@H]1CC[C@@H](C)C[C@@H]1O", "note": "[d-neomenthol]", "values": [{"measurement": "cooling threshold", "setting": "[3]", "result": "about 25,000 ppb"}]}]}
